Where “and” joins values, the source holds several entries; their conditions need not be identical. Equal entries are not always repeated.
Experiments:
[1] = target: T1, TGF-βRI (Homo sapiens, UniProt P36897); assay: Test of inhibitory activity of TGFβ-RI in vitro; type: biochemical; settings: 10 μM ATP
T1 sequence (P36897 34-503): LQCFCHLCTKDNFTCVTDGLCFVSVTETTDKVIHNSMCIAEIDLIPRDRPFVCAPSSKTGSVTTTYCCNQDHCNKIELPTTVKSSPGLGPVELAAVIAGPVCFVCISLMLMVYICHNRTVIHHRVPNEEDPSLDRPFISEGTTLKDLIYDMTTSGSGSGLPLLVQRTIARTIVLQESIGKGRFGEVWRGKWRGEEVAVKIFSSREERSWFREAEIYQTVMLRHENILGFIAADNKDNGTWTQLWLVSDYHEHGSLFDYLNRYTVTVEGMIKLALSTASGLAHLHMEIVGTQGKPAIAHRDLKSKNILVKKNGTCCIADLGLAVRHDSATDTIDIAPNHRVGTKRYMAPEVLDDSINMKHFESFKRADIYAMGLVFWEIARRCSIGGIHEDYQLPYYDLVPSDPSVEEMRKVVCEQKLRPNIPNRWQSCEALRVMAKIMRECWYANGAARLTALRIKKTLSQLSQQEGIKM
Experimental: i) Test compound: the IC50 was determined by diluting into 10 gradient points with each gradient by three-fold dilution and with a starting concentration of 5 μM.
ii) The IC50 of reference compound LDN193189 was determined by diluting into 10 gradient points with each gradient by three-fold dilution and with a starting concentration of 20 μM.
iii) The reaction system contains 10 μM ATP.
iv) Calculate the IC50 value by curve fitting when the percentage of enzyme activity (compared to the solvent group) is below 65% at the highest concentration of the sample.

[2] = test system: NIH/3T3 mouse embryonic cells; assay: Test of proliferation inhibition on NIH/3T3 mouse embryonic cells (CellTiter-Glo, with TGF-β1); type: cell-based; settings: NIH3T3, 0.2 ng/mL TGF-β1, 72 h
Experimental: Promega's Luminescent Cell Viability Assay (CellTiter-Glo® method, i.e. ATP fluorescence activity detection and analysis), the compound is added to the cell culture plate for incubation. A substrate buffer for detecting intracellular ATP content was added on the day of detection. Slightly shake and centrifuge at 1000 rpm for 1 min. Tested after standing for 10 min. The assay plate was analyzed using Envision multifunctional enzyme marker of PerkinElmer, Inc., and the analysis mode was fluorescence detection, and the data was expressed by the reading of chemiluminescence signal at 400-700 nm.
i) When the cell growth coverage is about 70%, the cell layer was washed with 10 mL of Duchenne phosphate buffer (D-PBS) which is calcium- and magnesium-free, then 2 mL of 0.25% trypsin-EDTA digest was added. The cell culture flask was placed in a CO2 carbon dioxide incubator at 37° C. and incubated for 3-5 min, then 8 mL of complete culture medium containing 2% FBS DMEM cells was added, and the cells were puffed evenly into single cell and counted by Vi-cell cytometer, and NIH/3T3 cell suspension was diluted to 0.375×10^5/mL cells.
ii) 50 μL of 2% DMEM-containing medium was added around the 384-well cell culture plate, then 40 μL of cell suspension was added to the remaining wells to 1500 cells per well. The distribution of the cells was observed under a microscope, and the cell plates were placed in a cell culture incubator with 5% CO2 at 37° C.
iii) Dilution of the compound refers to the preparation of the compound.
iv) A mixture of 2% fetal bovine serum containing 1 ng/mL TGF-β1 in DMEM medium was added manually to the compound intermediate plate, 20 μL per well.
v) The compound intermediate plate was shook slightly for 10 sec at 1000 rpm/min and centrifuge for 10 sec.
vi) 10 uL of the mixed liquid from steps 4 and 5 of each well was transferred to the inoculated cell plate to a final volume of 50 μL by using a Bravo liquid workstation, and the final concentration of TGF-β1 was diluted to 0.2 ng/mL, and centrifuged for 10 sec at 1000 rpm/min. The plates were placed in an incubator with 5% carbon dioxide at 37° C., 5% carbon dioxide for 72 h. The final concentration of the compound is: (unit: μM)
vii) The cell plate containing the compound was cultured in a cell incubator with 5% CO2 at 37° C. for 3 days.
viii) After that, 25 μL of ATP fluorescence activity detection solution was added to each well of the cell plate, then shook gently for about 1 min and centrifuged at 500 rpm/min for about 30 sec, and the reading was performed in an Envision instrument after standing at room temperature for 10 min in the dark.

[3] = test system: CT-26 cells; assay: Tumor cell proliferation inhibition in BALB/c mouse model of subcutaneously transplanted CT-26 cells, alone or combined with BioXcell-mPD-L1; type: in vivo; settings: for Tumor volume: average ± SEM, small molecules 75 mg/kg PO twice a day, BioXcell-mPD-L1 10 mg/kg IP twice a week
Experimental: The following table lists the animal grouping and dosing regimen of embodiment 1, the positive reference compound LY2157299 and the BioXcell PD-L1 monoclonal antibody (BioXcell-mPD-L1), which are used alone or in combination in vivo.
Mouse colon cancer CT-26 cells were cultured in vitro in a single layer, and culture conditions is RPMI1640 medium (Medium No. 1640, Roswell Parker Memorial Institute) supplemented with 10% fetal bovine serum at 37° C., 5% CO2. Passage was routinely digested with trypsin-EDTA twice a week. When the cell saturation is 80%-90%, the cells are collected, counted, and inoculated.
0.1 mL (1×10^5) CT-26 cells were subcutaneously inoculated into the right back of each BALB/c mouse. The mice were administered in groups according to the body weight of the mice on the second day after cell inoculation.
The experimental indicator is to investigate whether tumor growth is inhibited, delayed or cured. Tumor diameters were measured with Vernier calipers twice a week. The tumor volume is calculated as: V=0.5a×b^2, and a and b represent the long and short diameters of the tumor, respectively.
The antitumor effect of the compound was evaluated by TGI (%) or tumor proliferation rate T/C (%). TGI (%) reflects the tumor growth inhibition rate. Calculation of TGI (%): TGI (%)=[(1-(mean tumor volume at the end of administration of a treatment group—mean tumor volume at the start of administration of the treatment group))/(mean tumor volume at the end of treatment of the solvent control group)—mean tumor volume at the start of treatment of the solvent control group)]×100%.
Tumor proliferation rate T/C (%): The formula is as follows: T/C %=T/C×100% (T: treatment group; C: negative control group).
Tumor weights were measured after the end of the experiment and the percentage of T/Cweight was calculated. Tweight and Cweight represent the tumor weights of the drug-administered group and the vehicle control group, respectively.
Statistical analysis, including mean and standard error (SEM) of tumor volume at each time point for each group (see Table 4 for specific data). […] T-test was used for comparison between the two groups, and one-way analysis of variance was used for comparison between three or more groups. If there was a significant difference in F values, the Gass-Howell method was used to test. If there is no significant difference in F values, the Dunnet (2-sided) method is used for analysis. All data analysis was performed with SPSS 17.0. A significant difference was considered at p<0.05.

[4] = test system: mouse breast cancer 4T1 cells; assay: Tumor cell metastasis inhibition in BALB/c mouse orthotopic transplantation model of mouse breast cancer 4T1 cells; type: in vivo; settings: 75 mg/kg PO once a day × 32
Experimental: Fluorescently labeled mouse breast cancer 4T1-Luc cells were expanded in vitro. Before the cells were collected, the mice were anesthetized with intraperitoneal injection of sodium pentobarbital. After anesthetized mice were fixed, the abdominal skin was disinfected with 70% alcohol. 100 uL of phosphate buffer (containing 0.5×10^6 4T1-luc2 cells) was inoculated into the left side of the fourth pair of abdominal mammary fat pads in mice, and the incision was sutured to disinfect the skin. The animals are kept warm with a warm blanket, observed until they wake up and put back in their cages. 0.1 mg/kg buprenorphine for pain relief was subcutaneously injected 30 min before surgery and 6 hours after surgery.
On the third day after modeling, the animals were subjected to bioluminescence detection by infrared data imaging, randomly grouped according to the fluorescence values, and administered according to the following experimental protocol, see Table 5.
To observe the inhibitory effect of embodiment 1 on tumor growth and metastasis, the experimental endpoint was designed to be 30-35 days after administration, with reference to historical data of the model. At the end of the experiment, the in situ tumor and various organ tissues were dissected, the tumor was weighed, and the fluorescence intensity of each organ was detected by IVIS fluorescence. Growth inhibition of orthotopic tumors can be compared by the weight of the in situ tumor in the experimental endpoint, and the inhibition curve is generated from the tumor volume measurement data twice a week during the experiment. The inhibition of tumor metastasis was determined by the presence or absence of fluorescence detection of each organ and the analysis of relative fluorescence intensity.
At the end of the experiment, the tumor weight will be detected and the relative tumor growth rate T/C (%) will be calculated; the tumor volume is calculated as: V=0.5a×b^2, and a and b represent the long and short diameters of the tumor, respectively. At the same time, the lung, liver, spleen, kidney, intestine and left upper limb were stripped, and fluorescence was detected to determine whether there was metastasis and metastasis intensity and ratio.
The antitumor effect of the compound was evaluated by the tumor growth inhibition rate TGI (%) or the relative tumor growth rate T/C (%).
Calculation of TGI (%): TGI (%)=[(1−mean tumor volume at the end of administration of a treatment group−mean tumor volume at the start of administration of the treatment group))/(mean tumor volume at the end of treatment of the solvent control group−mean tumor volume at the start of administration of the solvent control group)]×100%.
Relative tumor growth rate T/C (%) calculation: T/C(%)=Tt(treatment group)/Ct(control group)×100%, Tt is the average tumor volume at a certain measurement, and Ct takes the same day data.
The experimental results were statistically analyzed using one-way ANOVA. If there is a significant difference in F values, multiple comparisons should be made after ANOVA analysis. All data in this experiment were analyzed using SPSS 17.0. A significant difference was considered at p<0.05.
At the end of the experiment, each organ tissue was peeled off, and fluorescence imaging and fluorescence intensity value recording were measured by IVIS for 40 sec exposure within 8 min. The fluorescence imaging results of the tested tissues of the 10 animals excised by the maximum and minimum values are shown in Table 6.
According to the experimental end point, the fluorescence intensity of each group of organs was normalized by the control group, and the relative fluorescence intensity ratio of each group of organs was obtained. The ratio reflects the level of metastatic intensity on the corresponding organs.

[5] = test system: liver cancer; settings: phase 2, patients with liver cancer; cited from earlier work
[6] = animals with metastasis/animals in group
[7] = average organ fluorescence relative to control group

SMILES: Cc1cccc(-c2nn3c(c2-c2ccc4ncnn4c2/C=C/C(=O)NC2CC2)CCC3)n1 [Embodiment 4]
- IC50 [1]: 50 to 500 nM
- IC50 [2]: 2000 to 5000 nM

SMILES: Cc1cc(C)nc(-c2nn3c(c2-c2ccc4ncnn4c2/C=C/C(N)=O)CCC3)c1 [Embodiment 11]
- IC50 [1]: > 500 nM

SMILES: Cc1cccc(-c2nn(C(C)C)cc2-c2ccc3ncnn3c2/C=C/C(N)=O)n1 [Embodiment 8]
- IC50 [1]: 50 to 500 nM
- IC50 [2]: 2000 to 5000 nM

SMILES: CCc1cccc(-c2nn3c(c2-c2ccc4ncnn4c2/C=C/C(N)=O)CCC3)n1 [Embodiment 10]
- IC50 [1]: 50 to 500 nM
- IC50 [2]: 2000 to 5000 nM

SMILES: CNC(=O)/C=C/c1c(-c2c(-c3cccc(C)n3)nn3c2CCC3)ccc2ncnn12 [Embodiment 2]
- IC50 [1]: 50 to 500 nM
- IC50 [2]: 2000 to 5000 nM

SMILES: Cc1nc(-c2nn3c(c2-c2ccc4ncnn4c2/C=C/C(N)=O)CCC3)ccc1Cl [Embodiment 12]
- IC50 [1]: > 500 nM

SMILES: Cc1cccc(-c2nn(Cc3cccc(C#N)c3)cc2-c2ccc3ncnn3c2/C=C/C(N)=O)n1 [Embodiment 6]
- IC50 [1]: 50 to 500 nM
- IC50 [2]: 500 to 2000 nM

SMILES: Cc1cccc(-c2nn(Cc3cccc(C(F)F)c3)cc2-c2ccc3ncnn3c2/C=C/C(N)=O)n1 [Embodiment 9]
- IC50 [1]: 50 to 500 nM
- IC50 [2]: 500 to 2000 nM

SMILES: Cc1cccc(-c2nn(C3CCCC3)cc2-c2ccc3ncnn3c2/C=C/C(N)=O)n1 [Embodiment 7]
- IC50 [1]: 50 to 500 nM

SMILES: Cc1cccc(-c2nn3c(c2-c2ccnc4ccc(C(N)=O)cc24)CCC3)n1 [LY2157299, Galunisertib, reference compound]
- Tumor volume ([3]; day 10 of administration): 98 ± 14 mm^3
- Tumor volume ([3]; day 13 of administration): 446 ± 104 mm^3
- Tumor volume ([3]; day 15 of administration): 840 ± 177 mm^3
- Tumor volume ([3]; day 17 of administration): 1256 ± 257 mm^3
- Tumor volume ([3]; day 20 of administration): 2186 mm^3 and 2186 ± 435 mm^3
- Tumor proliferation rate T/C ([3]; twenty days after start of administration, 75 mg/kg PO and/or 10 mg/kg IP): 85%
- Antitumor effect compared with the solvent control group ([3]; twenty days after start of administration, 75 mg/kg and/or 10 mg/kg): no significant antitumor effect
- Metastasis rate, intestine [4, 6]: 60%
- Metastasis rate, kidney [4, 6]: 30%
- Metastasis rate, liver [4, 6]: 80%
- Metastasis rate, lung [4, 6]: 100%
- Metastasis rate, spleen [4, 6]: 10%
- Metastasis rate, upper limb [4, 6]: 70%
- Metastasis level, intestine [4, 7]: 41%
- Metastasis level, kidney [4, 7]: 121%
- Metastasis level, liver [4, 7]: 31%
- Metastasis level, lung [4, 7]: 20%
- Metastasis level, spleen [4, 7]: 4%
- Metastasis level, upper limb [4, 7]: 54%
- Patients with a decrease in serum alpha-fetoprotein (AFP) level of more than 20% [5]: about 23%

SMILES: CCNC(=O)/C=C/c1c(-c2c(-c3cccc(C)n3)nn3c2CCC3)ccc2ncnn12 [Embodiment 3]
- IC50 [1]: 50 to 500 nM
- IC50 [2]: 2000 to 5000 nM

SMILES: Cc1cccc(-c2nn3c(c2-c2ccc4ncnn4c2/C=C/C(=O)NCCO)CCC3)n1 [Embodiment 5]
- IC50 [1]: 50 to 500 nM
- IC50 [2]: > 5000 nM

Reference: US10548883B2, “Benzotriazole-derived α and β-unsaturated amide compound used as TGF-β RI inhibitor” (GENFLEET THERAPEUTICS (SHANGHAI) INC., priority 2016, dated 2020)
